Assays:
[1] = system: isolated Rap1A-heterozygous cardiac myocytes; settings: combination with isoproterenol, waves resumed after washout
Method: Ventricular myocytes were isolated from male C57BL/6 control wild-type (WT) and Rap1A-heterozygous (Rap1a^+/−) mice. Whole hearts were cannulated and hung on a Langendorff apparatus and tissue treated for enzymatic digestion for 3-5 minutes. The ventricles were minced and myocytes were dissociated by trituration. Subsequently, the myocytes were filtered, centrifuged, and used for the studies within 6 hours of isolation. Calcium transients were measured by loading isolated myocytes with fluo 4-AM (10 μM) for 30 min, followed by an additional 30 min for intracellular deesterification. Cell fluorescence was measured by epifluorescence. The intracellular calcium concentration [Ca^2+]i of single cells was measured with excitation at 480±20 nm and emission at 535±25 nm. Data were expressed as ΔF/F0, where F is the fluorescence intensity, and F0 is the intensity at rest. Myocytes were stimulated at 1 Hz. Simultaneous measurement of shortening was also performed using edge detection. Data were expressed as cell shortening (μm). Myocytes were analyzed from 2-3 independent isolations per group.
Myocytes were analyzed from 2-3 independent isolations per group.

[2] = system: isolated ventricular myocytes; assay: After-contractions protocol in isolated ventricular myocytes; format: cell-based, mice; settings: 5 s stimulation, counted 40 s after stimulation withdrawn
Method: FIG. 10 provides graphs showing that aftercontractions increase in heterozygous Rap1A myocytes. Further investigation of the spontaneous waves was performed using an “after-contractions” protocol by stimulating for 5 seconds and counting the number of after-contractions that occur 40 seconds after the stimulation is withdrawn. (A) Rap1A-heterozygous myocytes have increased after-contractions compared to control wild-type (WT) myocytes. (B) Inhibition of protein kinase C (PKC) by bisindolylmaleimide I (BIM, 1 μM) increases after-contractions in control wild-type (WT) and Rap1A-heterozygous myocytes. (C) Protein kinase C (PKC) activation by phorbol myristate acetate (PMA, 150 nM) leads to a decrease in after-contractions in Rap1A-heterozygous myocytes. (D) Summary data of WT/Rap1A-heterozygous+/− BIM (Inhibitor) and PMA (Activator). Both drugs were incubated in isolated ventricular myocytes before measurements were taken to activate or inhibit PKC.

Cc1cccc(C)c1OCC(C)N (stereo not shown) [Mexiletine] was tested, and the “After-transients / spontaneous calcium waves” value [1] was “rescued”.
For CN(C)CCCn1cc(C2=C(c3c[nH]c4ccccc34)C(=O)NC2=O)c2ccccc21 [bisindolylmaleimide I], the After-contractions ([2]; Rap1A-heterozygous myocytes, 1 μM) was “increases” and the After-contractions ([2]; control wild-type (WT) myocytes, 1 μM) was “increases”.
In the case of CCCCCCCCCCCCCC(=O)O[C@@H]1[C@@H](C)[C@@]2(O)[C@@H](C=C(CO)C[C@]3(O)C(=O)C(C)=C[C@@H]23)[C@@H]2C(C)(C)[C@]12OC(C)=O [phorbol myristate acetate], the After-contractions ([2]; Rap1A-heterozygous myocytes, 150 nM) is reported as “decrease”.

— US20120301402A1, “RAP1A AS A MARKER FOR CARDIAC ARRHYTHMIA” (NATIONWIDE CHILDREN'S HOSPITAL, INC., priority 2011, published 2012)
